The values that follow are results of earlier work, collected in patent US7780647B2, “Medical device with therapeutic agents” (Cook Incorporated, priority 2003, dated 2010).

SMILES strings stand for the structures.

Data set [1] concerns smooth muscle cell proliferation. To be noted: both in vitro and in vivo.
Data set [2] deals with restenosis of human coronary arteries. To be noted: following stent use.

`CC(=O)O[C@H]1C(=O)[C@@]2(C)[C@H]([C@H](OC(=O)c3ccccc3)[C@]3(O)C[C@H](OC(=O)[C@H](O)[C@@H](NC(=O)c4ccccc4)c4ccccc4)C(C)=C1C3(C)C)[C@]1(OC(C)=O)CO[C@@H]1C[C@@H]2O` [paclitaxel]: the “smooth muscle cell proliferation” value in data set [1] is listed as “inhibits smooth muscle cell proliferation”. The “restenosis of human coronary arteries” value in data set [2] is “decrease restenosis”.
